From article PMC13144739, “Global analysis of cancer cell responses to USP9X inhibition” (The EMBO Journal, 2026)
“Also recorded” adds a separate entry of the source.

What was measured:
[1] = tested on: CEP55; assay: CEP55 degradation by Western Blot in MDA-MB-231 cells; format: cell-based, human
Procedure: The next day, cells were lysed in DISC lysis buffer (20 mM TRIS/HCl [pH 7.5], 150 mM NaCl, 2 mM EDTA [pH 8.0], 1% [v/v] Triton X 100, 10% [v/v] glycerol) supplemented with 2% (w/v) SDS and PhosSTOP tablets (Roche). To shred DNA, DISC lysates were run through polypropylene columns (Pierce). […] Next, membranes were washed twice in TBS-T and incubated with primary antibodies at 4 °C o/n. Primary antibodies were diluted in antibody dilution buffer (5% [w/v] BSA [pH 5.2, Sigma-Aldrich] in TBS-T with 0.04% [v/v] sodium azide) as per the manufacturer’s instructions. […] Next, membranes were washed four times for 5 min each in TBS-T. Membranes were developed in ECL (Bio-Rad) and imaged using the ChemiDoc imaging system (Bio-Rad). Images were processed using Image Lab software.
Appendix Fig S4. WEHI-092 phenotypes across cell lines.
(A) IC50 of USP9X inhibitors in MDA-MB-231 cells measured via degradation of the USP9X substrate CEP55 by Western Blot. The compounds were incubated with cells for […]
biological repeats. Error bars, s.e.m. (B) Western Blot analysis of USP9X expression levels across a subset of cell lines used in this study. Representative blot from two independent biological repeats is shown with Actin as a sample loading control. l.p. - low passage; h.p. - high passage. […]
Right, quantification of images plotted as dose-dependent colony area. […]

[2] = tested on: 57 human cancer cell lines; assay: NCI-60 cancer cell panel; format: cell-based; conditions: 72 h, 3 days, in five cell lines across three cancer types, read-out: cell growth inhibition
Procedure: Inhibitors were tested at 10 µM. Data shown is the mean of two technical replicates and is shown relative to the no-drug control, and relative to the time zero number of cells.

[3] = tested on: MDA-MB-468 cells; assay: Colony formation assay, MDA-MB-468; format: cell-based, human; conditions: 10 µM, 7–12 days
Procedure: (§1) Cells were seeded at low density (200–4000 cells per well) after initial optimisation in a six-well tissue culture-treated plate (Falcon). Twenty-four hours post seeding, media was replaced, and the inhibitor was added. Cells were left to grow into colonies between 7 and 12 days, depending on the cell line. For analysis, the media was removed, and the cells were fixed with 10% (w/v) formalin for 10 min. Colonies were stained with crystal violet (Sigma-Aldrich, 0.5% [w/v] in 20% [v/v] MeOH) for 10 min and washed thrice with distilled H2O. Plates were imaged using the ChemiDoc imaging system (Bio-Rad) and analysed using the ImageJ ColonyArea plugin as described previously (Guzmán et al, [2014]).

[4] = molecular target: T1, USP9X catalytic domain (Homo sapiens, UniProt Q93008); assay: Ub-Rho cleavage assay; format: biochemical; conditions: relative to WEHI-553
T1 construct: His/SUMO (pOPIN-S vector) (N, cleaved yes); made in house; host or cells: E. coli BL21
T1 sequence (Q93008 1551-1970): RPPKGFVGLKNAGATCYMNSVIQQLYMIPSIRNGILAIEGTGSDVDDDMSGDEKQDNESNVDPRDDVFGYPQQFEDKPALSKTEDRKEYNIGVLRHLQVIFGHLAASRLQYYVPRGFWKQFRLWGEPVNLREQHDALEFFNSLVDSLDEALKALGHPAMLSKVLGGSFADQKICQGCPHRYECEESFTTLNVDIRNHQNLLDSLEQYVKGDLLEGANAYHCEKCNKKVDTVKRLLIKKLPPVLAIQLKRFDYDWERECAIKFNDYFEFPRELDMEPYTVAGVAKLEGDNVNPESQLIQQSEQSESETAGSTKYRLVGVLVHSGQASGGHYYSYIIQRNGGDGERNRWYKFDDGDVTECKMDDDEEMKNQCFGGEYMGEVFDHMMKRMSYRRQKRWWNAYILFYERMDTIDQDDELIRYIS
Procedure: The reaction was stopped through the addition of 10 mM citric acid. The assay was performed in 384-well format with a total reaction volume of 16 µL. Data was collected using the ClarioSTAR plate reader (BMG Labtech) at an emission of 535 nm. […] IC50 values presented in our study are the mean of three independent biological repeats unless indicated otherwise.

[5] = molecular target: T1, USP9X catalytic domain; assay: Ub-PA suicide probe competition assay; format: biochemical; conditions: 50 µM compound, WT catalytic domain
Procedure: For inhibitor activity assays, USP9X catalytic domain (di-ubiquitin cleavage assay: 750 nM, ubiquitin-probe assays: 2.5 µM) was pre-incubated with USP9X inhibitors for 30 min at ambient temperature and subsequently mixed with di-ubiquitin (final concentration 2 µM) in assay buffer (25 mM Tris [pH 8.0], 150 mM NaCl, 10 mM DTT) at pH 8.0 or was mixed with ubiquitin-propargylamide (Ub-PA)/ubiquitin-vinyl sulfonate (Ub-VS) probes at a final concentration of 10 µM in assay buffer. For both assays, the mixture was incubated over a time course, and the reaction was stopped by mixing samples with 2× LDS sample buffer (Invitrogen) supplemented with 3% (v/v) 2-mercaptoethanol. All protein samples were run on a 4–12% Bis-Tris SDS-PAGE gradient gel (Invitrogen) for 60 min at 140 V. The gel was stained with InstantBlue® (Abcam) and imaged.

[6] = tested on: MDA-MB-231 cells; assay: Colony formation assay, MDA-MB-231; format: cell-based, human; conditions: 10 µM, 7–12 days
Procedure: as §1

[7] = tested on: human dermal fibroblasts (HDF); assay: IncuCyte live-cell imaging cell death, HDF; format: cell-based; conditions: 50 µM (Appendix Fig. S4E)
Procedure: Cells were seeded at varying densities (1000–8000 cells per well) after initial optimisation in a 96-well tissue culture-treated plate (Thermo Fisher Scientific). Cells were incubated o/n, and the next day, inhibitors and controls diluted in cell media were added to the cells to a final volume of 200 μL per well. Cell death was measured using PI (Sigma-Aldrich). Cells were imaged with four images per well every 2 h for up to 96 h using the IncuCyte live-cell analysis system (S3, Sartorius). Cell proliferation data were analysed using Microsoft Excel by normalising confluence to control conditions. For cell killing readouts, the number of PI-positive cells was normalised to the control conditions for each timepoint.

Cc1[nH]c2ccc(C(=O)N3CCN(S(=O)(=O)c4ccc5c(c4)OCCO5)CC3)cc2c1C [WEHI-092]
IC50 ([1]; Homo sapiens, MDA-MB-231 cells, 24 h, read-out: apparent IC50 (CEP55 destabilisation, based on Western blotting)): 1300 nM
CEP55 protein level ([1]; dose-dependent, Western blot): destabilised
inhibition at 10 µM [2]: > 50%
clonogenic potential, MDA-MB-468 [3]: strong decrease in proliferative capacity
improvement of IC50 towards USP9X by SAR [4]: > 16 fold
modification of USP9X with Ub-PA probe [5]: prevented the modification of USP9X with ubiquitin propargylamide; also recorded: unable to be modified by the probe
clonogenic potential, MDA-MB-231 [6]: strong decrease in proliferative capacity
toxicity to HDFs [7]: non-lethal and non-toxic
